# Results: the supplement of paper PMC10307832
# Key:
# Experiment in all cases: relative viability (nuclei count vs DMSO), 5 days (fraction); higher = more cells survive
# Salubrinal + Lapatinib = compound: O=C(/C=C/c1ccccc1)NC(NC(=S)Nc1cccc2cccnc12)C(Cl)(Cl)Cl [Salubrinal] + CS(=O)(=O)CCNCc1ccc(-c2ccc3ncnc(Nc4ccc(OCc5cccc(F)c5)c(Cl)c4)c3c2)o1 [Lapatinib] (partner 2 µM)
# How it was run: (§1)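 Each reported value is a median over duplicate plates. It expresses relative viability: treated-well nuclei count divided by vehicle-well nuclei count. Lung cancer cell lines in 1536-well plates were dosed by pin tool a day after seeding, alone with one drug or with a fixed anchor-drug dose plus five library-drug doses (not always all listed) in √10 steps, and nuclei were counted after 5 days.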
# [1] = compound: Cc1ccc2nc(NCCN)c3ncc(C)n3c2c1 + CS(=O)(=O)N1CCN(Cc2cc3nc(-c4cccc5[nH]ncc45)nc(N4CCOCC4)c3s2)CC1 [Pictilisib] (partner 1 µM)
# How it was run: as §1
# [2] = compound: Cc1ccc2nc(NCCN)c3ncc(C)n3c2c1 + CS(=O)(=O)CCNCc1ccc(-c2ccc3ncnc(Nc4ccc(OCc5cccc(F)c5)c(Cl)c4)c3c2)o1 [Lapatinib] (partner 2 µM)
# How it was run: as §1
# Salubrinal + Alpelisib = compound: O=C(/C=C/c1ccccc1)NC(NC(=S)Nc1cccc2cccnc12)C(Cl)(Cl)Cl [Salubrinal] + Cc1nc(NC(=O)N2CCC[C@H]2C(N)=O)sc1-c1ccnc(C(C)(C)C(F)(F)F)c1 [Alpelisib] (partner 2 µM)
# How it was run: as §1
Cell Line,relative viability (Salubrinal + Lapatinib; first compound 0.08 µM),relative viability (Salubrinal + Lapatinib; first compound 0.253 µM),relative viability (Salubrinal + Lapatinib; first compound 0.8 µM),relative viability (Salubrinal + Lapatinib; first compound 2.53 µM),relative viability (Salubrinal + Lapatinib; first compound 8 µM),relative viability ([1]; first compound 0.04 µM),relative viability ([1]; first compound 0.1265 µM),relative viability ([1]; first compound 0.4 µM),relative viability ([1]; first compound 1.265 µM),relative viability ([1]; first compound 4 µM),relative viability ([2]; first compound 0.04 µM),relative viability ([2]; first compound 0.1265 µM),relative viability ([2]; first compound 0.4 µM),relative viability ([2]; first compound 1.265 µM),relative viability ([2]; first compound 4 µM),relative viability (Salubrinal + Alpelisib; first compound 0.08 µM),relative viability (Salubrinal + Alpelisib; first compound 0.253 µM),relative viability (Salubrinal + Alpelisib; first compound 0.8 µM),relative viability (Salubrinal + Alpelisib; first compound 2.53 µM),relative viability (Salubrinal + Alpelisib; first compound 8 µM)
COR-L 105,0.377,0.317,0.395,0.389,0.35,0.507,0.399,0.422,0.468,0.31,0.451,0.351,0.352,0.399,0.339,1.01,0.906,1.04,1.06,0.831
NCI-H1975,1.04,0.594,0.967,0.928,0.798,0.317,0.281,0.245,0.261,0.242,1.01,0.925,0.935,0.95,0.849,0.713,0.467,0.766,0.674,0.579
Calu-6,1.28,1.03,1.27,1.08,1.06,1,0.781,0.989,0.836,0.475,1.09,1.03,1.07,1.07,0.737,0.94,0.936,1.07,1.04,0.942
NCI-H1993,0.887,0.866,0.814,1.14,0.9,0.804,0.648,0.693,0.765,0.771,0.844,0.887,0.695,0.74,0.629,0.62,0.595,0.735,0.688,0.676
RERF-LC-KJ,0.871,0.75,0.837,0.828,0.822,0.511,0.433,0.44,0.542,0.501,0.834,0.925,0.911,0.809,0.84,0.912,0.824,0.925,0.813,0.698
NCI-H23,1.08,1.1,1.34,0.955,1.36,0.549,0.472,0.446,0.462,0.466,1.09,1.12,1.19,1.15,0.937,0.839,0.717,0.763,0.685,0.976
HCC-366,1.23,0.796,1.12,1.01,1.08,0.131,0.123,0.163,0.114,0.116,1.14,0.91,1.11,1.07,0.998,0.609,0.361,0.426,0.472,0.326
EMC-BAC-2,0.823,0.815,0.947,0.865,0.938,0.586,0.58,0.554,0.569,0.579,0.915,0.875,0.847,0.918,0.851,0.802,0.709,0.786,0.82,0.702
NCI-H2405,1.01,1.03,1.13,1.07,1.09,0.442,0.443,0.441,0.511,0.396,1.06,1.06,1.06,1.08,0.835,0.8,0.845,0.711,0.79,0.831
NCI-H1944,0.583,0.899,0.804,0.902,0.846,0.331,0.37,0.319,0.363,0.328,0.772,0.805,0.642,0.978,0.758,0.912,0.912,0.871,0.871,0.795
NCI-H358,0.531,0.514,0.365,0.494,0.47,0.348,0.394,0.364,0.379,0.367,0.549,0.486,0.434,0.508,0.511,1.03,0.676,0.886,0.792,0.675
EPLC-272H,0.838,0.804,1.32,0.93,0.761,0.33,0.356,0.288,0.336,0.306,1.04,0.981,0.777,0.829,0.977,1.01,0.798,1.07,0.996,0.787
EBC-1,0.191,0.289,0.187,0.167,0.198,0.4,0.35,0.336,0.246,0.263,0.207,0.201,0.233,0.179,0.191,0.869,0.952,0.976,0.811,0.736
NCI-H1915,0.981,0.683,1.04,1,0.963,0.969,,0.578,0.939,0.923,1.01,,0.68,0.991,0.947,1.06,1.08,1.11,1.06,1.04
NCI-H596,1.05,1.02,1.21,1.08,0.887,0.384,0.37,0.285,0.309,0.411,1.12,1.11,1.31,0.962,1.05,0.55,0.426,0.441,0.572,0.528
NCI-H322M,0.606,0.589,0.669,0.657,0.517,0.521,0.566,0.571,0.512,0.503,0.535,0.593,0.586,0.59,0.603,0.783,0.849,0.863,0.788,0.739

Cell Line,relative viability (Salubrinal + Lapatinib; first compound 0.08 µM),relative viability (Salubrinal + Lapatinib; first compound 0.253 µM),relative viability (Salubrinal + Lapatinib; first compound 0.8 µM),relative viability (Salubrinal + Lapatinib; first compound 2.53 µM),relative viability (Salubrinal + Lapatinib; first compound 8 µM),relative viability ([1]; first compound 0.04 µM),relative viability ([1]; first compound 0.1265 µM),relative viability ([1]; first compound 0.4 µM),relative viability ([1]; first compound 1.265 µM),relative viability ([1]; first compound 4 µM),relative viability ([2]; first compound 0.04 µM),relative viability ([2]; first compound 0.1265 µM),relative viability ([2]; first compound 0.4 µM),relative viability ([2]; first compound 1.265 µM),relative viability ([2]; first compound 4 µM),relative viability (Salubrinal + Alpelisib; first compound 0.08 µM),relative viability (Salubrinal + Alpelisib; first compound 0.253 µM),relative viability (Salubrinal + Alpelisib; first compound 0.8 µM),relative viability (Salubrinal + Alpelisib; first compound 2.53 µM),relative viability (Salubrinal + Alpelisib; first compound 8 µM)
NCI-H1299,0.96,0.924,0.98,0.918,0.883,0.864,0.761,0.735,0.55,0.263,0.957,0.935,0.954,0.911,0.809,1.04,1.03,1.05,1.15,0.982
NCI-H2228,1.29,0.775,1.35,1.08,0.743,0.464,0.592,0.417,0.272,0.369,1.07,1.3,0.884,1.15,1.04,0.87,0.582,0.792,0.861,0.725
IA-LM,0.742,0.536,0.916,0.856,0.593,0.343,0.335,0.188,0.238,0.347,1.02,0.833,0.581,1,0.7,0.828,0.906,0.885,0.66,0.747
NCI-H647,1.31,0.687,1.31,1.2,0.829,0.552,0.409,0.385,0.44,0.373,1.08,1.02,0.948,1.13,0.707,1.47,0.438,1.54,1.25,1.08
NCI-H2170,0.275,0.289,0.248,0.271,0.263,0.31,0.337,0.361,0.292,0.319,0.307,0.263,0.249,0.302,0.26,0.883,0.703,0.859,0.811,0.706
NCI-H1793,0.947,0.654,0.657,0.818,0.752,0.393,0.381,0.383,0.389,0.309,0.942,0.697,0.734,0.581,0.737,1,0.722,0.837,0.798,0.617
NCI-H2085,0.684,0.793,0.898,0.854,0.737,0.515,0.436,0.429,0.551,0.422,0.91,0.771,0.728,0.785,0.817,1.09,0.879,0.923,0.936,0.981
SW 1573,1.02,1.14,1.09,1.11,1.16,0.449,0.577,0.418,0.507,0.502,1.07,1.1,1.19,1.42,0.954,0.802,0.909,0.827,1.04,0.604
NCI-H727,1.01,0.848,0.899,0.812,0.903,0.288,0.443,0.46,0.388,0.354,1.22,0.887,1.19,0.766,0.762,0.768,0.453,0.63,0.602,0.561
LOU-NH91,0.71,0.776,0.776,0.778,0.752,0.528,0.534,0.514,0.56,0.475,0.784,0.846,0.782,0.777,0.766,0.781,0.692,0.72,0.749,0.697
NCI-H3122,1.12,1.02,1.04,1.1,0.959,0.646,0.585,0.541,0.735,0.672,1.06,0.994,0.997,1.12,1,0.832,0.762,0.874,0.795,0.793
NCI-H460,1.6,0.445,1.76,0.948,0.75,0.368,0.411,0.402,0.302,0.322,0.999,1,0.886,0.898,0.745,0.615,0.358,0.433,0.419,0.451
NCI-H650,0.696,0.84,1.42,1.05,0.822,0.927,0.827,0.785,0.767,0.946,0.927,0.123,0.645,0.969,0.761,1.29,1.14,1.14,1.11,1.04
NCI-H661,0.609,0.497,0.248,0.467,0.412,0.511,0.514,0.421,0.35,0.299,0.587,0.407,0.43,,0.458,0.572,0.864,0.937,0.845,0.686
NCI-H1734,1.11,1.08,1.18,1.05,1.02,0.457,0.481,0.451,0.409,0.424,1.11,1,1.13,1.07,0.941,0.721,0.695,0.833,0.737,0.749
LXF-289,0.984,0.778,0.913,0.931,0.804,0.912,0.795,0.799,0.765,0.723,0.956,0.882,0.894,0.873,0.902,1.13,0.956,1.13,1.08,0.966
